Measured values from the NIST ThermoML archive (doi:10.1021/je050358g).
± gives the expanded uncertainty stated by the source.

Conditions: Liquid, vibrating tube

CC(=O)[O-].CCCCCCCCCCCCCC[P+](CCCCCC)(CCCCCC)CCCCCC [trihexyl(tetradecyl)phosphonium acetate]
mass density [kg/m3]
Conditions	298.15 K	303.15 K	307.97 K	313.07 K	317.74 K	323.96 K	329.14 K	334.11 K
210 kPa	890.6 ± 2.3	887.54 ± 2.3	884.7 ± 2.3	881.57 ± 2.3	878.87 ± 2.3	875.25 ± 2.3	872.15 ± 2.3	869.21 ± 2.3
540 kPa	890.77 ± 2.4	887.71 ± 2.3	884.86 ± 2.3	881.77 ± 2.3	879.06 ± 2.3	875.43 ± 2.3	872.35 ± 2.3	869.41 ± 2.3
1000 kPa	891.01 ± 2.4	887.96 ± 2.3	885.13 ± 2.3	882.02 ± 2.3	879.32 ± 2.3	875.7 ± 2.3	872.61 ± 2.3	869.67 ± 2.3
3000 kPa	892.04 ± 2.4	889.03 ± 2.3	886.22 ± 2.3	883.14 ± 2.3	880.46 ± 2.3	876.87 ± 2.3	873.78 ± 2.3	870.81 ± 2.3
5010 kPa	893.09 ± 2.4	890.08 ± 2.3	887.29 ± 2.3	884.26 ± 2.3	881.6 ± 2.3	878 ± 2.3	874.92 ± 2.3	871.98 ± 2.3
7500 kPa	894.35 ± 2.4	891.38 ± 2.4	888.6 ± 2.3	885.61 ± 2.3	882.99 ± 2.3	879.4 ± 2.3	876.33 ± 2.3	873.42 ± 2.3
9990 kPa	895.56 ± 2.4	892.64 ± 2.4	889.9 ± 2.3	886.96 ± 2.3	884.32 ± 2.3	880.77 ± 2.3	877.71 ± 2.3	874.78 ± 2.3
15010 kPa	897.96 ± 2.4	895.15 ± 2.4	892.45 ± 2.4	889.57 ± 2.3	886.95 ± 2.3	883.42 ± 2.3	880.41 ± 2.3	877.5 ± 2.3
19990 kPa	900.29 ± 2.4	897.52 ± 2.4	894.88 ± 2.4	892.06 ± 2.4	889.47 ± 2.3	885.99 ± 2.3	883 ± 2.3	880.11 ± 2.3
25010 kPa	902.57 ± 2.4	899.86 ± 2.4	897.23 ± 2.4	894.49 ± 2.4	891.91 ± 2.4	888.48 ± 2.3	885.53 ± 2.3	882.67 ± 2.3
29990 kPa	904.74 ± 2.4	902.08 ± 2.4	899.51 ± 2.4	896.77 ± 2.4	894.26 ± 2.4	890.86 ± 2.4	887.95 ± 2.3	885.12 ± 2.3
35010 kPa	906.9 ± 2.4	904.28 ± 2.4	901.72 ± 2.4	899.05 ± 2.4	896.54 ± 2.4	893.19 ± 2.4	890.32 ± 2.4	887.57 ± 2.3
40020 kPa	908.99 ± 2.4	906.41 ± 2.4	903.88 ± 2.4	901.21 ± 2.4	898.76 ± 2.4	895.47 ± 2.4	892.64 ± 2.4	889.93 ± 2.4
45010 kPa	911.02 ± 2.4	908.45 ± 2.4	905.95 ± 2.4	903.32 ± 2.4	900.88 ± 2.4	897.65 ± 2.4	894.88 ± 2.4	892.22 ± 2.4
49990 kPa	912.98 ± 2.4	910.44 ± 2.4	907.95 ± 2.4	905.38 ± 2.4	902.96 ± 2.4	899.78 ± 2.4	897.06 ± 2.4	894.45 ± 2.4
55000 kPa	914.91 ± 2.4	912.4 ± 2.4	909.92 ± 2.4	907.36 ± 2.4	904.98 ± 2.4	901.85 ± 2.4	899.19 ± 2.4	896.66 ± 2.4
59990 kPa	916.81 ± 2.4	914.31 ± 2.4	911.84 ± 2.4	909.27 ± 2.4	906.93 ± 2.4	903.86 ± 2.4	901.27 ± 2.4	898.81 ± 2.4
65010 kPa	918.66 ± 2.4	916.16 ± 2.4	913.69 ± 2.4	911.16 ± 2.4	908.84 ± 2.4	905.84 ± 2.4	903.3 ± 2.4	900.91 ± 2.4

CCCCCCCCCCCCCC[P+](CCCCCC)(CCCCCC)CCCCCC.[Cl-] [trihexyl(tetradecyl)phosphonium chloride]
mass density [kg/m3]
Conditions	298.13 K	303.15 K	308.13 K	313.15 K	318.15 K	323.14 K	328.16 K	333.14 K
190 kPa	891.62 ± 2.4	888.51 ± 2.3	885.65 ± 2.3	882.72 ± 2.3	879.82 ± 2.3	876.69 ± 2.3	873.88 ± 2.3	870.88 ± 2.3
1000 kPa	892.02 ± 2.4	888.97 ± 2.3	886.07 ± 2.3	883.19 ± 2.3	880.27 ± 2.3	877.16 ± 2.3	874.33 ± 2.3	871.36 ± 2.3
3000 kPa	893.07 ± 2.4	890.03 ± 2.3	887.18 ± 2.3	884.3 ± 2.3	881.41 ± 2.3	878.29 ± 2.3	875.5 ± 2.3	872.51 ± 2.3
5010 kPa	894.09 ± 2.4	891.06 ± 2.4	888.26 ± 2.3	885.4 ± 2.3	882.52 ± 2.3	879.43 ± 2.3	876.64 ± 2.3	873.64 ± 2.3
7500 kPa	895.36 ± 2.4	892.35 ± 2.4	889.57 ± 2.3	886.75 ± 2.3	883.89 ± 2.3	880.82 ± 2.3	878.05 ± 2.3	875.05 ± 2.3
10000 kPa	896.59 ± 2.4	893.6 ± 2.4	890.87 ± 2.4	888.06 ± 2.3	885.24 ± 2.3	882.18 ± 2.3	879.42 ± 2.3	876.42 ± 2.3
15010 kPa	899.02 ± 2.4	896.1 ± 2.4	893.38 ± 2.4	890.63 ± 2.4	887.86 ± 2.3	884.84 ± 2.3	882.11 ± 2.3	879.11 ± 2.3
19990 kPa	901.33 ± 2.4	898.48 ± 2.4	895.82 ± 2.4	893.11 ± 2.4	890.37 ± 2.4	887.38 ± 2.3	884.69 ± 2.3	881.72 ± 2.3
25010 kPa	903.6 ± 2.4	900.78 ± 2.4	898.17 ± 2.4	895.49 ± 2.4	892.81 ± 2.4	889.86 ± 2.4	887.2 ± 2.3	884.25 ± 2.3
29990 kPa	905.77 ± 2.4	903.01 ± 2.4	900.42 ± 2.4	897.81 ± 2.4	895.15 ± 2.4	892.24 ± 2.4	889.62 ± 2.4	886.71 ± 2.3
35010 kPa	907.93 ± 2.4	905.17 ± 2.4	902.63 ± 2.4	900.04 ± 2.4	897.43 ± 2.4	894.57 ± 2.4	891.98 ± 2.4	889.11 ± 2.3
39990 kPa	910.01 ± 2.4	907.28 ± 2.4	904.75 ± 2.4	902.21 ± 2.4	899.63 ± 2.4	896.82 ± 2.4	894.24 ± 2.4	891.46 ± 2.4
45010 kPa	912.05 ± 2.4	909.34 ± 2.4	906.82 ± 2.4	904.32 ± 2.4	901.78 ± 2.4	899.01 ± 2.4	896.49 ± 2.4	893.73 ± 2.4
50000 kPa	914.03 ± 2.4	911.34 ± 2.4	908.83 ± 2.4	906.35 ± 2.4	903.87 ± 2.4	901.13 ± 2.4	898.62 ± 2.4	895.96 ± 2.4
55000 kPa	915.93 ± 2.4	913.27 ± 2.4	910.78 ± 2.4	908.34 ± 2.4	905.9 ± 2.4	903.19 ± 2.4	900.74 ± 2.4	898.14 ± 2.4
59990 kPa	917.83 ± 2.4	915.17 ± 2.4	912.67 ± 2.4	–	907.87 ± 2.4	905.21 ± 2.4	902.79 ± 2.4	900.26 ± 2.4
65000 kPa	919.63 ± 2.4	916.99 ± 2.4	914.51 ± 2.4	–	909.78 ± 2.4	907.16 ± 2.4	904.8 ± 2.4	902.35 ± 2.4

CCCCCCCCCCCCCC[P+](CCCCCC)(CCCCCC)CCCCCC.O=S(=O)([N-]S(=O)(=O)C(F)(F)F)C(F)(F)F
mass density [kg/m3]
Conditions	298.15 K	303.25 K	308.15 K	318.27 K	323.33 K	328.39 K	333.43 K
210 kPa	1066.62 ± 2.8	1062.61 ± 2.8	1058.87 ± 2.8	1051.54 ± 2.8	1047.84 ± 2.8	1044.49 ± 2.8	1041.15 ± 2.7
540 kPa	1066.84 ± 2.8	1062.85 ± 2.8	1059.07 ± 2.8	1051.79 ± 2.8	1048.07 ± 2.8	1044.74 ± 2.8	1041.43 ± 2.7
1000 kPa	1067.13 ± 2.8	1063.14 ± 2.8	1059.37 ± 2.8	1052.1 ± 2.8	1048.38 ± 2.8	1045.08 ± 2.8	1041.76 ± 2.7
3000 kPa	1068.44 ± 2.8	1064.47 ± 2.8	1060.76 ± 2.8	1053.49 ± 2.8	1049.81 ± 2.8	1046.53 ± 2.8	1043.19 ± 2.8
5010 kPa	1069.7 ± 2.8	1065.77 ± 2.8	1062.11 ± 2.8	1054.88 ± 2.8	1051.24 ± 2.8	1047.96 ± 2.8	1044.61 ± 2.8
7500 kPa	1071.3 ± 2.8	1067.39 ± 2.8	1063.74 ± 2.8	1056.54 ± 2.8	1052.94 ± 2.8	1049.68 ± 2.8	1046.4 ± 2.8
9990 kPa	1072.85 ± 2.8	1068.97 ± 2.8	1065.36 ± 2.8	1058.2 ± 2.8	1054.64 ± 2.8	1051.4 ± 2.8	1048.13 ± 2.8
15010 kPa	1075.88 ± 2.8	1072.09 ± 2.8	1068.53 ± 2.8	1061.47 ± 2.8	1057.95 ± 2.8	1054.74 ± 2.8	1051.51 ± 2.8
19990 kPa	1078.82 ± 2.8	1075.07 ± 2.8	1071.57 ± 2.8	1064.6 ± 2.8	1061.14 ± 2.8	1057.9 ± 2.8	1054.8 ± 2.8
25010 kPa	1081.69 ± 2.9	1078 ± 2.8	1074.54 ± 2.8	1067.62 ± 2.8	1064.22 ± 2.8	1061.01 ± 2.8	1057.94 ± 2.8
29990 kPa	1084.45 ± 2.9	1080.84 ± 2.9	1077.42 ± 2.8	1070.51 ± 2.8	1067.21 ± 2.8	1064.03 ± 2.8	1060.97 ± 2.8
35010 kPa	1087.15 ± 2.9	1083.56 ± 2.9	1080.23 ± 2.9	1073.32 ± 2.8	1070.14 ± 2.8	1066.99 ± 2.8	1063.96 ± 2.8
40000 kPa	1089.79 ± 2.9	1086.26 ± 2.9	1082.95 ± 2.9	1076.09 ± 2.8	1072.99 ± 2.8	1069.88 ± 2.8	1066.84 ± 2.8
45010 kPa	1092.36 ± 2.9	1088.87 ± 2.9	1085.64 ± 2.9	1078.77 ± 2.8	1075.75 ± 2.8	1072.64 ± 2.8	1069.67 ± 2.8
50000 kPa	1094.88 ± 2.9	1091.44 ± 2.9	1088.25 ± 2.9	1081.37 ± 2.9	1078.47 ± 2.8	1075.39 ± 2.8	1072.43 ± 2.8
55010 kPa	1097.34 ± 2.9	1093.95 ± 2.9	1090.8 ± 2.9	1084 ± 2.9	1081.14 ± 2.9	1078.08 ± 2.8	1075.17 ± 2.8
59990 kPa	1099.74 ± 2.9	1096.39 ± 2.9	1093.3 ± 2.9	1086.5 ± 2.9	1083.74 ± 2.9	1080.67 ± 2.9	1077.73 ± 2.8
65010 kPa	1102.11 ± 2.9	1098.81 ± 2.9	1095.75 ± 2.9	1088.91 ± 2.9	1086.3 ± 2.9	1083.24 ± 2.9	1080.29 ± 2.9
